Data published in patent publication US6277862A, “Quinoline derivatives” (SmithKline Beecham S.p.A., priority 1995, dated 2001).
Counter-ions that a name gives are not always drawn.

How the values were obtained:
[1] = molecular target: T1, human neurokinin-3 receptors expressed in CHO cell lines (Homo sapiens, UniProt P29371); test: biochemical; conditions: human NK-3 receptors in CHO cell lines; radioligand [125I]-[Me-Phe7]-NKB; mean of 2-5 separate experiments in duplicate or triplicate; read-out: Binding affinity in hNK-3-CHO IC50
T1 sequence (P29371 1-465): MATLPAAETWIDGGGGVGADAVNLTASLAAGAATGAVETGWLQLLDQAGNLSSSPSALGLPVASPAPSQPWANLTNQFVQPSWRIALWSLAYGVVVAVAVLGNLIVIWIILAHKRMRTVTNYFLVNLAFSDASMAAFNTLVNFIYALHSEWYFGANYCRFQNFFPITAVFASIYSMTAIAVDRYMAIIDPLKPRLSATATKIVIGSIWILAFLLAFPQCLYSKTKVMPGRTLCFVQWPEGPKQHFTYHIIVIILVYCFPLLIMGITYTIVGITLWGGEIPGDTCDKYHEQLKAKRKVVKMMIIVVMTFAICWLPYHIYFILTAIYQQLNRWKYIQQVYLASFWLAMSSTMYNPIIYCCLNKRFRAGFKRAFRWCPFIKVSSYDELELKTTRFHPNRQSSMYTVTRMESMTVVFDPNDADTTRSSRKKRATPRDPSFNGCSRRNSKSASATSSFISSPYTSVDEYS
Protocol: The activity of the compounds of the present invention, as NK3 ligands, is determined by their ability to inhibit the binding of the radiolabelled NK3 ligands, [^125 I]-[Me--Phe^7 ]-NKB or [^3 H]-Senktide, to guinea-pig and human NK3 receptors (Renzetti et at, 1991, Neuropeptide, 18, 104-114; Buell et al, 1992, FEBS, 299(1), 90-95; Chung et al, 1994, Biochem. Biophys. Res. Commun., 198(3), 967-972).
The binding assays utilized allow the determination of the concentration of the individual compound required to reduce by 50% the [^125 I]-[Me--Phe^7 ]-NKB and [^3 H]-Senktide specific binding to NK3 receptor in equilibrium conditions (IC50).
The NK3 -antagonist activity of the compounds of the present invention is determined by their ability to inhibit senktide-induced contraction of the guinea-pig ileum (Maggi et al, 1990, Br. J. Pharmacol., 101, 996-1000) and rabbit isolated iris sphincter muscle (Hall et al., 1991, Eur. J. Pharmacol., 199, 9-14) and human NK3 receptors-mediated Ca^++ mobilization (Mochizuki et al, 1994, J. Biol. Chem., 269, 9651-9658). Guinea-pig and rabbit in-vitro functional assays provide for each compound tested a mean KB value of 3-8 separate experiments, where KB is the concentration of the individual compound required to produce a 2-fold rightward shift in the concentration-response curve of senktide. Human receptor functional assay allows the determination of the concentration of the individual compound required to reduce by 50% (IC50 values) the Ca^++ mobilization induced by the agonist NKB.

[2] = molecular target: T2, NK-3 receptor relative to the NK-2 receptor (Homo sapiens, UniProt P29371); test: Selectivity for the NK-3 receptor relative to the NK-2 receptor; format: binding; conditions: in words
T2 construct: counter-target NK-2 receptor (TACR2, human P21452); assay not given
T2 sequence (P29371 1-465): T1 sequence (P29371 1-465)

[3] = system: NK-2 and NK-3 receptors; test: Combined NK-2/NK-3 antagonism; conditions: in words

SMILES	IC50 [1]	selectivity for the NK-3 receptor relative to the NK-2 receptor [2]	combined NK-2/NK-3 antagonism [3]
CC[C@H](NC(=O)c1c(OCCNC(=O)c2ccccc2CC(=O)O)c(-c2ccccc2)nc2ccccc12)c1ccccc1 [Example 30, (S)-N-(a-ethylbenzyl)-3-[2-(2'-carboxymethylbenzoyl)aminoethoxy]-2-phenylquinoline-4-carboxamide]	1.5 nM	–	–
CC[C@H](NC(=O)c1c(OCCNC2Cc3ccccc3C2)c(-c2ccccc2)nc2ccccc12)c1ccccc1 [Example 8, (S)-N-(α-ethylbenzyl)-3-[2-(2-indanylamino)ethoxy]-2-phenylquinoline-4-carboxamide hydrochloride]	1.3 nM	–	–
CC[C@H](NC(=O)c1c(OCCNC(=O)Cc2ccccc2)c(-c2ccccc2)nc2ccccc12)c1ccccc1 [Example 22]	0.6 nM	–	–
CC[C@H](NC(=O)c1c(OCCNC(=O)c2cnccn2)c(-c2ccccc2)nc2ccccc12)c1ccccc1 [Example 36]	0.2 nM	particularly selective for the NK-3 receptor relative to the NK-2 receptor	–
CC[C@H](NC(=O)c1c(OCCCNC(=O)c2cnccn2)c(-c2ccccc2)nc2ccccc12)c1ccccc1 [Example 38]	0.4 nM	particularly selective for the NK-3 receptor relative to the NK-2 receptor	–
CC[C@H](NC(=O)c1c(OCCNC(=O)c2ccccc2)c(-c2ccccc2)nc2ccccc12)c1ccccc1 [Example 9, (S)-N-(α-ethylbenzyl)-3-(2-benzoylaminoethoxy)-2-phenylquinoline-4-carboxamide]	2.2 nM	–	–
CC[C@H](NC(=O)c1c(OCCNC(=O)Cc2ccncc2)c(-c2ccccc2)nc2ccccc12)c1ccccc1 [Example 26, (S)-N-(a-ethylbenzyl)-3-[2-(4-pyridylacetyl)aminoethoxy]-2-phenylquinoline-4-carboxamide]	0.9 nM	–	–
CC[C@H](NC(=O)c1c(OCCNC(=O)Cc2ccccc2CNC)c(-c2ccccc2)nc2ccccc12)c1ccccc1 [Example 39]	–	–	particularly suitable as combined NK-2/NK-3 antagonists
CC[C@H](NC(=O)c1c(OCCNC(=O)CCC(=O)O)c(-c2ccccc2)nc2ccccc12)c1ccccc1 [Example 14, (S)-N-(a-ethylbenzyl)-3-[2-(3-carboxypropanoyl)aminoethoxy]-2-phenylquinoline-4-carboxamide]	2.3 nM	–	–
CC[C@H](NC(=O)c1c(OCCCC(=O)O)c(-c2ccccc2)nc2ccccc12)c1ccccc1 [Example 11, (S)-N-(a-ethylbenzyl)-3-(carboxypropoxy)-2-phenylquinoline-4-carboxamide]	1.7 nM	–	–
CC[C@H](NC(=O)c1c(OCCNC(=O)CN)c(-c2ccccc2)nc2ccccc12)c1ccccc1 [Example 25, (S)-N-(a-ethylbenzyl)-3-(2-aminoacetylaminoethoxy)-2-phenylquinoline-4-carboxamide]	2.6 nM	–	–
CC[C@H](NC(=O)c1c(OCc2ccncc2)c(-c2ccccc2)nc2ccccc12)c1ccccc1 [Example 34]	1.6 nM	particularly selective for the NK-3 receptor relative to the NK-2 receptor	–
CC[C@H](NC(=O)c1c(OCCNC(=O)Cc2ccccc2O)c(-c2ccccc2)nc2ccccc12)c1ccccc1 [Example 42]	0.4 nM	–	–
CC[C@H](NC(=O)c1c(OCCNC(=O)Cc2ccccc2CN2CCCC2)c(-c2ccccc2)nc2ccccc12)c1ccccc1 [Example 40]	1.3 nM	–	particularly suitable as combined NK-2/NK-3 antagonists
CC[C@H](NC(=O)c1c(OCCNC(=O)Cc2ccccc2C(=O)O)c(-c2ccccc2)nc2ccccc12)c1ccccc1 [Example 29, (S)-N-(a-ethylbenzyl)-3-[2-(2'-carboxyphenylacetyl)aminoethoxy]-2-phenylquinoline-4-carboxamide]	0.8 nM	–	–
